The values that follow are results of earlier work, collected in PMC8513935.

Data set [1] in a line: log P octanol/water from commercial databases, averaged (the ESI). Particulars: Octanol (wet), 25 C.
A short description of data set [2]: derived by the authors as gas->solvent minus gas->water (a hypothetical dry solvent; the ESI), not a two-phase measurement.
The nature of data set [3]: experimental, compiled by the authors from the literature (the ESI cites the sources).

Regarding `c1ccc2c(c1)ccc1ccccc12`, the log K of transfer, water to solvent is 4.49 log10 K in data set [1]; 4.21 log10 K in data set [2] (2-Methylpropan-1-ol, 25 C); 4.2 log10 K in data set [2] (2-Methylpropan-2-ol, 25 C); 4.33 log10 K in data set [2] (3-Methylbutan-1-ol, 25 C); 5.46 log10 K in data set [2] (Acetone, 25 C); 4.93 log10 K in data set [2] (Acetonitrile, 25 C). Also, the log K of transfer, water to solvent is 4.45 log10 K in data set [2] (Butan-1-ol, 25 C); 4.27 log10 K in data set [2] (Butan-2-ol, 25 C); 5.47 log10 K in data set [2] (Butanone, 25 C); 5.39 log10 K in data set [2] (Butyronitrile, 25 C); 5.25 log10 K in data set [2] (CCl4, 25 C); 5.06 log10 K in data set [2] (Chloroform, 25 C). The log K of transfer, water to solvent in data set [2] (Cyclohexane, 25 C) is 4.61 log10 K; in data set [2] (Cyclohexanone, 25 C), 5.53 log10 K; in data set [2] (Di-n-butyl ether, 25 C), 4.92 log10 K; in data set [2] (Ethanol, 25 C), 4.56 log10 K; in data set [2] (Heptan-1-ol, 25 C), 4.61 log10 K; in data set [2] (Hexadecane, 25 C), 4.83 log10 K. Moreover, the log K of transfer, water to solvent in data set [2] (Hexane, 25 C) is 4.55 log10 K; in data set [2] (Methanol, 25 C), 4.44 log10 K; in data set [2] (Octan-1-ol(dry), 25 C), 4.72 log10 K; in data set [2] (Pentan-1-ol, 25 C), 4.53 log10 K; in data set [2] (Propan-1-ol, 25 C), 4.5 log10 K; in data set [2] (Propan-2-ol, 25 C) it was 4.27 log10 K. Moreover, the log K of transfer, water to solvent in data set [2] (Propionitrile, 25 C) is 5.34 log10 K; in data set [2] (Tetrahydrofuran, 25 C), 5.62 log10 K. Further, the log K of transfer, gas to solvent is 7.01 log10 K in data set [3] (2-Methylpropan-1-ol, 25 C); 7 log10 K in data set [3] (2-Methylpropan-2-ol, 25 C); 7.13 log10 K in data set [3] (3-Methylbutan-1-ol, 25 C); 7.73 log10 K in data set [3] (Acetonitrile, 25 C); 7.25 log10 K in data set [3] (Butan-1-ol, 25 C); 7.07 log10 K in data set [3] (Butan-2-ol, 25 C). Also, the log K of transfer, gas to solvent was 8.27 log10 K in data set [3] (Butanone, 25 C); 8.19 log10 K in data set [3] (Butyronitrile, 25 C); 8.05 log10 K in data set [3] (CCl4, 25 C); 7.86 log10 K in data set [3] (Chloroform, 25 C); 7.41 log10 K in data set [3] (Cyclohexane, 25 C); 8.33 log10 K in data set [3] (Cyclohexanone, 25 C). Besides, the log K of transfer, gas to solvent in data set [3] (Di-n-butyl ether, 25 C) is 7.72 log10 K; in data set [3] (Ethanol, 25 C), 7.36 log10 K; in data set [3] (Heptan-1-ol, 25 C) it was 7.41 log10 K; in data set [3] (Hexadecane, 25 C), 7.63 log10 K; in data set [3] (Hexane, 25 C), 7.35 log10 K; in data set [3] (Methanol, 25 C), 7.24 log10 K. The log K of transfer, gas to solvent was 7.52 log10 K in data set [3] (Octan-1-ol, 25 C); 7.33 log10 K in data set [3] (Pentan-1-ol, 25 C); 7.3 log10 K in data set [3] (Propan-1-ol, 25 C); 7.07 log10 K in data set [3] (Propan-2-ol, 25 C); 8.26 log10 K in data set [3] (Propanone, 25 C); 8.14 log10 K in data set [3] (Propionitrile, 25 C). The log K of transfer, gas to solvent in data set [3] (Tetrahydrofuran, 25 C) is 8.42 log10 K; in data set [3] (Water, 25 C), 2.8 log10 K.

Consider `CCCCCCCCO`, for which the log K of transfer, water to solvent in data set [1] was 3.07 log10 K; in data set [2] (Benzene, 25 C), 2.91 log10 K; in data set [2] (Butanone, 25 C), 3.01 log10 K; in data set [2] (Butyronitrile, 25 C) it was 2.69 log10 K; in data set [2] (CCl4, 25 C) it was 2.09 log10 K; in data set [2] (Hexadecane, 25 C), 1.62 log10 K. Besides, the log K of transfer, water to solvent in data set [2] (Hexan-1-ol, 25 C) is 3.29 log10 K; in data set [2] (Methanol, 25 C), 2.89 log10 K; in data set [2] (Octan-1-ol(dry), 25 C), 3.03 log10 K. In addition, the log K of transfer, gas to solvent in data set [3] (Benzene, 25 C) is 5.91 log10 K; in data set [3] (Butanone, 25 C), 6.01 log10 K; in data set [3] (Butyronitrile, 25 C), 5.69 log10 K; in data set [3] (CCl4, 25 C), 5.09 log10 K; in data set [3] (Hexadecane, 25 C), 4.62 log10 K; in data set [3] (Hexan-1-ol, 25 C), 6.29 log10 K. The log K of transfer, gas to solvent in data set [3] (Methanol, 25 C) is 5.89 log10 K; in data set [3] (Octan-1-ol, 25 C), 6.03 log10 K; in data set [3] (Water, 25 C), 3 log10 K.

For `CCCCCO`, the log K of transfer, water to solvent in data set [1] is 1.51 log10 K; in data set [2] (1,2-Dichloroethane, 25 C), 0.72 log10 K; in data set [2] (2-Methylpropan-1-ol, 25 C), 1.67 log10 K; in data set [2] (2-Methylpropan-2-ol, 25 C), 1.75 log10 K; in data set [2] (Benzene, 25 C), 0.39 log10 K; in data set [2] (Butan-1-ol, 25 C) it was 1.61 log10 K. Besides, the log K of transfer, water to solvent in data set [2] (CCl4, 25 C) is 0.4 log10 K; in data set [2] (Chlorobenzene, 25 C) it was 0.5 log10 K; in data set [2] (Chloroform, 25 C), 1.05 log10 K; in data set [2] (Cyclohexane, 25 C), -0.411 log10 K; in data set [2] (Decan-1-ol, 25 C), 1.33 log10 K; in data set [2] (Hexadecane, 25 C), -0.244 log10 K. The log K of transfer, water to solvent in data set [2] (Hexan-1-ol, 25 C) is 1.55 log10 K; in data set [2] (Hexane, 25 C) it was 0.037 log10 K; in data set [2] (Methanol, 25 C), 1.58 log10 K; in data set [2] (Octan-1-ol(dry), 25 C), 1.34 log10 K; in data set [2] (Pentan-1-ol, 25 C), 1.6 log10 K; in data set [2] (Propan-1-ol, 25 C), 1.62 log10 K. The log K of transfer, water to solvent in data set [2] (Propan-2-ol, 25 C) was 1.66 log10 K; in data set [2] (Toluene, 25 C) it was 0.44 log10 K. In addition, the log K of transfer, gas to solvent in data set [3] (1,2-Dichloroethane, 25 C) was 4.07 log10 K; in data set [3] (2-Methylpropan-1-ol, 25 C), 5.02 log10 K; in data set [3] (2-Methylpropan-2-ol, 25 C), 5.1 log10 K; in data set [3] (Benzene, 25 C), 3.74 log10 K; in data set [3] (Butan-1-ol, 25 C), 4.96 log10 K; in data set [3] (CCl4, 25 C), 3.75 log10 K. In addition, the log K of transfer, gas to solvent in data set [3] (Chlorobenzene, 25 C) is 3.85 log10 K; in data set [3] (Chloroform, 25 C) it was 4.4 log10 K; in data set [3] (Cyclohexane, 25 C) it was 2.94 log10 K; in data set [3] (Decan-1-ol, 25 C) it was 4.68 log10 K; in data set [3] (Hexadecane, 25 C), 3.1 log10 K; in data set [3] (Hexan-1-ol, 25 C), 4.9 log10 K. Further, the log K of transfer, gas to solvent is 3.39 log10 K in data set [3] (Hexane, 25 C); 4.93 log10 K in data set [3] (Methanol, 25 C); 4.69 log10 K in data set [3] (Octan-1-ol, 25 C); 4.95 log10 K in data set [3] (Pentan-1-ol, 25 C); 4.97 log10 K in data set [3] (Propan-1-ol, 25 C); 5.01 log10 K in data set [3] (Propan-2-ol, 25 C). For the same compound, the log K of transfer, gas to solvent in data set [3] (Toluene, 25 C) is 3.79 log10 K; in data set [3] (Water, 25 C), 3.35 log10 K.

Take `CCCNCCC`: the log K of transfer, water to solvent in data set [1] is 1.67 log10 K; in data set [2] (Benzene, 25 C), 1.05 log10 K; in data set [2] (Hexadecane, 25 C) it was 0.671 log10 K; in data set [2] (Toluene, 25 C), 1.16 log10 K. The log K of transfer, gas to solvent in data set [3] (Benzene, 25 C) is 3.73 log10 K; in data set [3] (Hexadecane, 25 C), 3.35 log10 K; in data set [3] (Toluene, 25 C) it was 3.84 log10 K; in data set [3] (Water, 25 C), 2.68 log10 K.

Regarding `OC1CCCCC1`, the log K of transfer, water to solvent in data set [1] was 1.23 log10 K; in data set [2] (Acetone, 25 C), 1.08 log10 K; in data set [2] (Chloroform, 25 C), 1.12 log10 K; in data set [2] (Decan-1-ol, 25 C) it was 1.48 log10 K; in data set [2] (Hexadecane, 25 C), -0.252 log10 K; in data set [2] (Octan-1-ol(dry), 25 C), 1.17 log10 K. For the same compound, the log K of transfer, gas to solvent in data set [3] (Chloroform, 25 C) is 5.13 log10 K; in data set [3] (Decan-1-ol, 25 C), 5.48 log10 K; in data set [3] (Hexadecane, 25 C) it was 3.76 log10 K; in data set [3] (Octan-1-ol, 25 C) it was 5.18 log10 K; in data set [3] (Propanone, 25 C), 5.09 log10 K; in data set [3] (Water, 25 C) it was 4.01 log10 K.

On to `CC=C(C)C`, for which the log K of transfer, water to solvent in data set [1] was 2.67 log10 K; in data set [2] (2-Methylpropan-2-ol, 25 C) it was 3.32 log10 K; in data set [2] (CCl4, 25 C) it was 3.34 log10 K; in data set [2] (Cyclohexanone, 25 C) it was 3.22 log10 K; in data set [2] (Hexadecane, 25 C) it was 3.19 log10 K. For the same compound, the log K of transfer, gas to solvent in data set [3] (2-Methylpropan-2-ol, 25 C) is 2.36 log10 K; in data set [3] (CCl4, 25 C), 2.38 log10 K; in data set [3] (Cyclohexanone, 25 C), 2.26 log10 K; in data set [3] (Hexadecane, 25 C), 2.23 log10 K; in data set [3] (Water, 25 C) it was -0.96 log10 K.

Regarding `C/C=C\C`, the log K of transfer, water to solvent in data set [1] was 2.33 log10 K; in data set [2] (Hexadecane, 25 C) it was 2.73 log10 K. For the same compound, the log K of transfer, gas to solvent in data set [3] (Hexadecane, 25 C) is 1.74 log10 K; in data set [3] (Water, 25 C) it was -0.99 log10 K.

In the case of `CCCCCCCCCC`, the log K of transfer, water to solvent is 5.88 log10 K in data set [1]; 6.74 log10 K in data set [2] (Butanone, 25 C); 6.24 log10 K in data set [2] (Ethanol, 25 C); 7 log10 K in data set [2] (Hexadecane, 25 C); 7.34 log10 K in data set [2] (Hexane, 25 C). The log K of transfer, gas to solvent is 4.42 log10 K in data set [3] (Butanone, 25 C); 3.92 log10 K in data set [3] (Ethanol, 25 C); 4.68 log10 K in data set [3] (Hexadecane, 25 C); 5.02 log10 K in data set [3] (Hexane, 25 C); -2.32 log10 K in data set [3] (Water, 25 C).
